Results: US5422350A, “Nitrogen substituted acridine and cytochrome P450 inhibitors and methods of use” (priority 1992, dated 1995)

How the values were obtained:
[1] = Irreversible protein binding of 14C-tacrine-derived radioactivity, rat liver microsomes; conditions: 60 min
Protocol: Total reaction volume was 3 mL. Reactions were stopped by freezing in liquid nitrogen or dry-ice acetone. […] D. J. Waxman and L. Axaroff, "Phenobarbital induction of cytochrome P-450 Gene Expression", BIOCHEM J, Vol. 281, pp. 577-592 (1992); P. Soucek and I. Gut, supra.
C. N. Martin and R. C. Garner: "Covalent Binding In Vitro and In Vivo" in BIOCHEMICAL TOXICOLOGY: A PRACTICAL APPROACH, Eds. K. Snell and B. Mullock, IRL, Wash. D.C. pp. 109-126 (1987).

[2] = system: P450 2D6; test: Tacrine as substrate of P450 2D6: co-incubation with quinidine in human liver microsomes; assay type: in vitro ADME; conditions: for 1-Hydroxytacrine / Tacrine: quinidine -
Source text: U. A. Meyer, J. Gut, T. Kronbach, C. Skoda, U. T. Meier, and T. Catin, "The Molecular Mechanisms of Two Common Polymorphisms of Drug Oxidation-Evidence for Functional Changes in Cytochrome P-450 Isozymes Catalysing Bufuralol and Mephenytoin Oxidation", XENOBIOTICA, Vol 16, pp 449-464 (1986). […] PHARMACOL., Vol 37, pp 155-160 (1989).

[3] = I induced Rat, with NADPH, N = 3
[4] = MC induced Rat, with NADPH, N = 3
[5] = Noninduced Rat, with NADPH, N = 3
[6] = PB induced Rat, with NADPH, N = 3

Cl.Nc1c2c(nc3ccccc13)CCCC2.O [Tacrine, 1,2,3,4-tetrahydro-9-acridinamine monohydrate monohydrochloride]
Percent Bound [1, 3]: 4.62 ± 0.73% | Tacrine equivalents irreversibly bound to 1 mg microsomal protein [1, 3]: 0.042 ± 0.004 nmol | Tacrine equivalents irreversibly bound to 1 mg microsomal protein ([1]; I induced Rat, without NADPH): 0.003 nmol | Percent Bound [1, 4]: 14.5 ± 0.37% | Tacrine equivalents irreversibly bound to 1 mg microsomal protein [1, 4]: 0.139 ± 0.010 nmol | Tacrine equivalents irreversibly bound to 1 mg microsomal protein ([1]; MC induced Rat, without NADPH): 0.003 nmol | Percent Bound [1, 5]: 5.97 ± 0.68% | Tacrine equivalents irreversibly bound to 1 mg microsomal protein [1, 5]: 0.041 ± 0.001 nmol | Tacrine equivalents irreversibly bound to 1 mg microsomal protein ([1]; Noninduced Rat, without NADPH): 0.003 nmol | Percent Bound [1, 6]: 4.49 ± 0.85% | Tacrine equivalents irreversibly bound to 1 mg microsomal protein [1, 6]: 0.034 ± 0.006 nmol | Tacrine equivalents irreversibly bound to 1 mg microsomal protein ([1]; PB induced Rat, without NADPH): 0.002 nmol | Tacrine equivalents irreversibly bound to 1 mg microsomal protein ([1]; Table 3, MC induced Rat, NADPH, N = 3): 0.139 ± 0.010 nmol | catalysis by P450 2D6 of metabolism and irreversible binding [2]: not catalyzed by P450 2D6 | 1-Hydroxytacrine ([2]; 0 min): 0 nMoles per 3 mL incubate | Tacrine ([2]; 0 min): 2.13 nMoles per 3 mL incubate | metabolites observed ([2]; 7-hydroxytacrine at incubation times through 40 min): mainly 1-hydroxytacrine with 7-hydroxytacrine also being observed | 1-Hydroxytacrine ([2]; 5 min): 0.416 nMoles per 3 mL incubate | Tacrine ([2]; 5 min): 1.24 nMoles per 3 mL incubate | 1-Hydroxytacrine ([2]; 10 min): 0.716 nMoles per 3 mL incubate | Tacrine ([2]; 10 min): 0.831 nMoles per 3 mL incubate | 1-Hydroxytacrine ([2]; 20 min): 1.03 nMoles per 3 mL incubate | Tacrine ([2]; 20 min): 0.302 nMoles per 3 mL incubate | 1-Hydroxytacrine ([2]; 40 min): 1.34 nMoles per 3 mL incubate | Tacrine ([2]; 40 min): 0 nMoles per 3 mL incubate | 1-Hydroxytacrine ([2]; 60 min): 1.43 nMoles per 3 mL incubate | Tacrine ([2]; 60 min): 0 nMoles per 3 mL incubate
